The values that follow come from PMC7693184 (Angewandte Chemie (International Ed. in English), 2020).

This assay deals with T1, BtuR (ATP:Co(I)rrinoid adenosyltransferase) (Brucella melitensis, UniProt Q8YHV0).
T1 construct: gene BMEI0696
The conditions noted are these: excess cob(I)alamin as corrinoid substrate; inhibitor 5 μM; not a substrate itself.

T1 sequence (Q8YHV0 1-189): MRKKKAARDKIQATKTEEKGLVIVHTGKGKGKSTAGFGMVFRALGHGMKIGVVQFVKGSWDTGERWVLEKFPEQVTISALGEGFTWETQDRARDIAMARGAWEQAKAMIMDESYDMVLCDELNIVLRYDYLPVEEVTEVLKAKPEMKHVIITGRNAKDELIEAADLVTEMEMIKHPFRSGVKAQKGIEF

In general, % inhibition refers to the relative decrease from the control value, in per cent. The low end stands for a response near the control, the high end for a response far below the control. For the substance nibalamin [Nibl], the “% inhibition at 5 μM” value was found to be 60%.
